Laboratory results published in PubChem BioAssay AID256 (DTP/NCI, 2004).
Toxic doses and inconclusive results are not listed. Rule for the calls: active = survival T/C of 150% or more; inactive = T/C below 125% in these data.

System: CD2F1 mice, L1210 leukemia ip, survival T/C
Test: NCI In Vivo Anticancer Drug Screen. Data for tumor model L1210 Leukemia (intraperitoneal) in CD2F1 (CDF1) mice
Conditions: higher = longer survival
In short: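 Tumor-bearing mice (transplanted tumor) were split into treated and vehicle control groups, and the measured endpoint of each treated group was divided by that of its vehicle controls.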

[1] = endpoint: mean survival time, dose: 100.0 mg/kg/injection, schedule: Q01DX001 (ip), vehicle: saline with Tween-80
[2] = endpoint: mean survival time, dose: 200.0 mg/kg/injection, schedule: Q01DX001 (ip), vehicle: saline with Tween-80
[3] = endpoint: mean survival time, dose: 100.0 mg/kg/injection, schedule: Q04DX003 (ip), vehicle: saline with Tween-80
[4] = endpoint: mean survival time, dose: 200.0 mg/kg/injection, schedule: Q04DX003 (ip), vehicle: saline with Tween-80
[5] = endpoint: mean survival time, dose: 400.0 mg/kg/injection, schedule: Q04DX003 (ip), vehicle: saline with Tween-80

Measured: T/C

CCCSCC(CSCCC)(CSCCC)CSCCC
inactive: [1] 107 % of control | [2] 111 % of control | endpoint: mean survival time, dose: 400.0 mg/kg/injection, schedule: Q01DX001 (ip), vehicle: saline with Tween-80 101 % of control

c1ccc2c(c1)[nH]c1nc3ncncc3nc12
inactive: endpoint: mean survival time, dose: 100.0 mg/kg/injection, schedule: Q01DX009 (ip), vehicle: saline 98 % of control | endpoint: mean survival time, dose: 200.0 mg/kg/injection, schedule: Q01DX009 (ip), vehicle: saline 104 % of control | endpoint: mean survival time, dose: 400.0 mg/kg/injection, schedule: Q01DX009 (ip), vehicle: saline 112 % of control

CN1CCCN(C)C1c1cc(Cl)ccc1O
inactive: endpoint: mean survival time, dose: 6.25 mg/kg/injection, schedule: Q01DX009 (ip), vehicle: saline with Tween-80 98 % of control | endpoint: mean survival time, dose: 12.5 mg/kg/injection, schedule: Q01DX009 (ip), vehicle: saline with Tween-80 98 % of control | endpoint: mean survival time, dose: 25.0 mg/kg/injection, schedule: Q01DX009 (ip), vehicle: saline with Tween-80 98 % of control | [3] 103 % of control | [4] 121 % of control | [5] 95 % of control

CCCCCn1c(CN2CCCCC2)nc2c1-c1ccccc1C(=O)C2=O
inactive: [3] 96 % of control | [4] 103 % of control | [5] 103 % of control

CSc1ncc(C(=O)O)c(SC(C)C)n1
inactive: endpoint: mean survival time, dose: 50.0 mg/kg/injection, schedule: Q04DX003 (ip), vehicle: saline with Tween-80 91 % of control | [1] 102 % of control | [3] 93 % of control | [2] 92 % of control | [4] 87 % of control

NS(=O)(=O)c1ccc(NC(=O)Nc2cccc(F)c2)cc1
inactive: endpoint: mean survival time, dose: 100.0 mg/kg/injection, schedule: Q01DX009 (ip), vehicle: saline with Tween-80 98 % of control | endpoint: mean survival time, dose: 200.0 mg/kg/injection, schedule: Q01DX009 (ip), vehicle: saline with Tween-80 106 % of control | endpoint: mean survival time, dose: 400.0 mg/kg/injection, schedule: Q01DX009 (ip), vehicle: saline with Tween-80 97 % of control

Cc1ccc(S(=O)(=O)N/N=C/Cc2c(C(C)C)cc(C(C)C)cc2C(C)C)cc1
inactive: endpoint: median survival time, dose: 50.0 mg/kg/injection, schedule: Q04DX002 (ip), vehicle: saline with Tween-80 100 % of control | endpoint: median survival time, dose: 100.0 mg/kg/injection, schedule: Q04DX002 (ip), vehicle: saline with Tween-80 100 % of control | endpoint: median survival time, dose: 200.0 mg/kg/injection, schedule: Q04DX002 (ip), vehicle: saline with Tween-80 110 % of control | endpoint: median survival time, dose: 400.0 mg/kg/injection, schedule: Q04DX002 (ip), vehicle: saline with Tween-80 100 % of control

O=c1oc(-c2ccccc2Cl)nc2cc(Cl)ccc12
inactive: [3] 101 % of control | [4] 94 % of control
